Results: the SangsterLogP compilation

| Compound | logP |
| --- | --- |
| O=C(O)c1cccc(N=C=S)c1 | 2.4 |
| Cc1ccc(N=C=S)cc1 | 3.9 |
| S=C=Nc1cccc(Br)c1 | 4.12 |
| O=C(O)c1ccc(N=C=S)cc1 | 2.44 |
| CCC(C)N=C=S (stereo not drawn) | 2.81 |
| CN(C)c1ccc(N=C=S)cc1 | 3.96 |
| Oc1cccc(N=C=S)c1 | 3.23 |
| O=[N+]([O-])c1ccc(N=C=S)cc1 | 3.55 |
| CN=C=S | 0.94 |
| S=C=Nc1ccc(Cl)cc1 | 3.91 |
| S=C=Nc1ccc(I)cc1 | 4.22 |
| CC(C)CN=C=S | 2.82 |
| COc1ccc(N=C=S)cc1 | 3.58 |
| N#Cc1cccc(N=C=S)c1 | 3.13 |
| S=C=Nc1cccc(Cl)c1 | 3.36 |
| CCCCN=C=S | 2.92 |
| COc1cccc(N=C=S)c1 | 3.68 |
| N#Cc1ccc(N=C=S)cc1 | 2.65 |
